Experimental data published in patent US20230119360A1, “PHARMACEUTICAL COMBINATION OF A THERAPEUTIC OLIGONUCLEOTIDE TARGETING HBV AND A TLR7 AGONIST FOR TREATMENT OF HBV” (priority 2019, published 2023).

Tests used:
HBV [1] = experiment: AAV-HBV mouse model, single dose siRNA vs ASO: serum HBsAg; type: in vivo, C57BL/6 mice; details: 6.6 mg/kg single subcutaneous injection Day 0
Description: The purpose of this study was to evaluate the in vivo pharmacology and efficacy of certain compounds in AAV-HBV mouse model.
Recombinant adeno-associated virus (AAV) carrying the Hepatitis B Virus (HBV) genome rAAV8-1.3HBV ayw (Lot No: 2019032703) was purchased from Beijing FivePlus Molecular Medicine Institute, and stored at −70° C. before use.
One hundred and fifteen (115) male C57BL/6 mice were obtained. On Pre-dose Day 0, all the animals were subjected to injection through tail vein with 1×10^11 vector genome of AAV-HBV for model induction. Based on baseline serum viral markers and body weight on Pre-dose Day 24, 80 qualified HBV-infected mice were selected.
The 80 selected mice were randomized into 4 groups for compound treatment. Sterile water, DCR-AUD1, DCR-5219 (9 mg/kg), and CMP ID NO: 15_1 (6.6 mg/kg) were subcutaneously injected once at 5 mL/kg on Day 0. The dosing volume was […].
Whole blood was collected to prepare serum (15 μL per mouse) twice weekly during Day 0˜21. On Day 21, the mice were euthanized. […]
Baseline serum levels of HBsAg were determined by ARCHITECT i2000 (Abbott Laboratories, Lake Bluff, IL, USA) and supporting reagents. Baseline serum HBV DNA level was measured by using ABI7500 (Applied Biosystems, Foster City, Calif., USA) and detection kit (Sansure Biotech Inc., Changsha, Hunan, China).

HBV [2] = experiment: AAV/HBV mouse model: HBsAg levels in serum (CLIA); type: in vivo, C57BL/6 mice; parameters: HBsAg levels in serum, Average ± SD: unit not given here; details: for HBsAg levels in serum, Average ± SD: AAV/HBV mice, anti-HBV ASO 7.5 mg/kg weekly, TLR7 100 mg/kg weekly (QW)
From the text: (§1) The AAV-HBV mouse model is generated by injecting C57BL/6 mice with recombinant adeno-associated virus harboring a replicable HBV genome (AAV-HBV). The rAAV8-1.3 HBV ayw virus stock was purchased from Beijing FivePlus Molecular Medicine Institute (Beijing, China).
The animals (male, aged 4-5 weeks upon arrival) were purchased from SLAC Laboratory Animal Co. Ltd (Shanghai, China), acclimatized in the animal facility for 5-7 days, and then injected with 1×10^11 vector genome of AAV-HBV (diluted in 200 μL of PBS) through the tail vein. Persistence expression of HBV genome can be established after three weeks, with high levels of HBV viral markers including HBV DNA, HBsAg, and HBeAg in mouse serum. With stable HBV viremia and competent immune system of the C57BL/6 mice, the AAV-HBV mouse model was used to evaluate the in vivo anti-HBV efficacy of the compounds. The in-life part of the AAV-HBV study was conducted through contracted service at Covance Pharmaceutical Research and Development (Shanghai) Co. Ltd. (Covance Shanghai) and the post-life analysis using the serum was performed internally at Roche Innovation Center Shanghai (RICS).
Seven days before compound treatment, blood samples were collected for serum preparation (˜15 μL), and based on HBV DNA, HBsAg levels in serum and body weight, the AAV-HBV infected animals were stratified into the different treatment groups.
Saline (Group 01) and anti-HBV ASO of CMP ID NO: 15_1 at 1.5 or 7.5 mg/kg were dosed sub subcutaneously once a week during Day 0-49 on Days 0, 7, 14, 21, 28, 35, 42 and 49. TLR7 agonist of CMP ID NO: VI 100 mg/kg was administered by oral gavage once every other day during Day 0-55 (QOD) or once weekly during Day 0-49 on Days 0, 7, 14, 21, 28, 35, 42 and 49 (QW). The animals were weekly bled via retro-orbital sinus for sample collection throughout the study. • Oligonucleotide Synthesis
Serum HBsAg levels were determined in the serum of infected AAV-HBV mouse using the HBsAg chemoluminescence immunoassay (CLIA) (Autobio diagnostics Co. Ltd., Zhengzhou, China, Cat. no.CL0310-2), according to the manufacturer's protocol. Briefly, 50μl of serum was transferred to the antibody coated microtiter plate and 50 μl of enzyme conjugate reagent was added. The plate was incubated for 60 min on a shaker at room temperature before all wells were washed six times with washing buffer using an automatic washer. 25 μl of substrate A and then 25 μl of substrate B was added to each well. The plate was incubated for 10 min at RT before luminescence was measured using an Envision luminescence reader (Perkin Elmer). HBsAg is given in the unit IU/ml; where 1 ng HBsAg=1.14 IU.
(§2) To evaluate the combination of the anti-HBV ASO and the TLR7 agonist in an in vivo system, a mouse model of chronic HBV infection was used. In the AAV/HBV mouse model described in the Materials and Method a persistent HBV infection is established resulting in expression of viral markers (HBsAg, HBeAg, HBV DNA) detectable in plasma. The effect on these viral markers upon treatment with the anti-HBV ASO of CMP ID NO: 15_1 (table 2, and FIG. 4) dosed at 1.5 mg/kg or 7.5 mg/kg and the TLR7 agonist of CMP ID NO: VI (table 3) dosed with […] every other day (QOD) or once weekly (QW) in monotherapy or in combination has been evaluated.

HBV [3] = experiment: AAV/HBV mouse model: HBV-DNA levels in serum (qPCR); type: in vivo, C57BL/6 mice
From the text: as §1
The animals (male, aged 4-5 weeks upon arrival) were purchased from SLAC Laboratory Animal Co. Ltd (Shanghai, China), acclimatized in the animal facility for 5-7 days, and then injected with 1×10^11 vector genome of AAV-HBV (diluted in 200 μL of PBS) through the tail vein. Persistence expression of HBV genome can be established after three weeks, with high levels of HBV viral markers including HBV DNA, HBsAg, and HBeAg in mouse serum. […]
Quantification of extracted HBV DNA was performed using a Taqman qPCR machine (ViiA7, life technologies). […] DNA copy numbers were calculated from Ct values based on a HBV plasmid DNA standard curve by the ViiA7 software.
as §2, with “In the AAV/HBV mouse model described in the Materials and Method a persistent HBV infection is established resulting in expression of viral markers (HBsAg, HBeAg, HBV DNA) detectable in plasma.” left out

HBV [4] = experiment: Entecavir combination study in HBV-expressing mouse (HDI model); type: in vivo; details: HDI mice; monotherapy
Description: The RNAi oligonucleotides targeting the S antigen impact both the viral polymerase and HBsAg protein. In this study, the combinational effects of HBV(s)-219P2 as a monotherapy and combinational treatment with entecavir was explored in an HBV-expressing mouse (HDI model) for antiviral activity.
Mice were administered daily oral dosing of 500 ng/kg Entecavir (ETV) for 14 days. A single subcutaneous administration of HBV(s)-219P2 took place. Circulating viral load (HBV DNA) was measured by qPCR (FIG. 25A), plasma HBsAg level was measured by ELISA (FIG. 25B), and liver HBV mRNA and pgRNA levels were measured by qPCR.

HBsAg = tested on: HBsAg
Description: Preclinical potency was further evaluated in mice following a QW×3 dosing regimen in which HBV-254 was subcutaneously administered at 3 mg/kg (FIG. 23). The administration points are indicated by arrows in the figure. HBsAg levels were monitored in both oligonucleotide treated and untreated control mice for a period spanning 147 days.
Each oligonucleotide, including HBV-254, was evaluated at three concentrations (1, 10, and 100 pM) in HeLa cells using the fluorescence-based reporter assay.

Compound: 5′-GN2-C6ocoaoGs^mCsGstsasasasgsasgsasGsG-3′ [CMP ID NO: 15_1]
- time until which decrease in HBsAg was maintained before rebound (HBV [1]): about 10 days
- HBsAg level over time (HBV [1]; 21 days): rapid decrease in HBsAg level
- HBsAg levels in serum, Average ± SD (HBV [2]; D 0): 4.30 ± 0.30
- HBsAg levels in serum, Average ± SD (HBV [2]; D 7): 1.71 ± 0.24
- HBsAg levels in serum, Average ± SD (HBV [2]; D 14): 1.83 ± 0.21
- HBsAg levels in serum, Average ± SD (HBV [2]; D 21): 1.43 ± 0.17
- HBsAg levels in serum, Average ± SD (HBV [2]; D 28): 1.30 ± 0.19
- HBsAg levels in serum, Average ± SD (HBV [2]; D 35): 1.36 ± 0.26
- HBsAg levels in serum, Average ± SD (HBV [2]; D 42): 1.30 ± 0.16
- HBsAg levels in serum, Average ± SD (HBV [2]; D 49): 1.56 ± 0.16
- HBsAg levels in serum, Average ± SD (HBV [2]; D 56): 1.32 ± 0.24
- HBsAg levels in serum, Average ± SD (HBV [2]; D 63): 1.33 ± 0.47
- HBsAg levels in serum, Average ± SD (HBV [2]; D 70): 2.18 ± 0.91
- HBsAg levels in serum, Average ± SD (HBV [2]; D 77): 2.70 ± 0.85
- HBsAg levels in serum, Average ± SD (HBV [2]; D 84): 3.17 ± 0.60
- HBsAg levels in serum, Average ± SD (HBV [2]; D 91): 3.82 ± 0.38
- HBsAg levels in serum, Average ± SD (HBV [2]; D 98): 3.64 ± 0.81
- HBsAg levels in serum, Average ± SD (HBV [2]; D 105): 3.61 ± 0.97
- HBsAg levels in serum, Average ± SD (HBV [2]; D 111): 3.40 ± 1.49
- suppression of HBsAg below the detection limit (HBV [2]; anti-HBV ASO 1.5 mg/kg monotherapy): not capable of suppressing HBsAg to a level below the detection limit
- reduction in HBV-DNA (HBV [3]; monotherapy at both 1.5 mg/kg and 7.5 mg/kg): rapid reduction in HBV-DNA to below the lower level of quantification

Compound: CC[C@H](OC(C)=O)[C@@H]1C[C@@H](O)[C@H](n2c(=O)sc3cnc(N)nc32)O1 [CMP ID NO: VI, [(1S)-1-[(2S,4R,5R)-5-(5-amino-2-oxo-thiazolo[4,5-d]pyrimidin-3-yl)-4-hydroxy-tetrahydrofuran-2-yl]propyl] acetate]
- day of lowest HBsAg (HBV [2]; TLR7 agonist alone (FIG. 10A)): 42 days
- HBV DNA rebound, distance from control group during follow-up (HBV [3]; TLR7 agonist monotherapy, QOD or QW): ≤ 1 log

Compound: C=C1[C@H](CO)[C@@H](O)C[C@@H]1n1cnc2c(=O)[nH]c(N)nc21 [entecavir, Entecavir]
- circulating HBsAg (HBV [4]): No significant decrease
- hepatic viral RNAs (HBV [4]): No significant decrease

Compound: HBV-254: HBsAg-targeting duplex oligonucleotide, sense SEQ ID NO: 55, antisense SEQ ID NO: 56 (sense GUGGUGGACUUCUCUCAAUAGCAGCCGAAAGGCUGC; antisense UAUUGAGAGAAGUCCACCACGG; chemistry not given here)
- HBsAg levels (HBsAg; HDI-mice, single subcutaneous dose, increasing dosage): systematically reduced HBsAg levels in mice with increasing dosage
- HBsAg levels relative to control (HBsAg; mice, QW×3, 3 mg/kg subcutaneous, monitored 147 days): Diminished HBsAg levels persisted in treated mice throughout the entirety of the study
